How the values of data set [1] were obtained:
During thermo-gravimetric analysis (TGA), the weight of a sample is measured very accurately as the sample is undergoing a temperature program (usually a gradual increase in temperature). Changes in the sample that result in weight differences will be detected, and can be correlated to temperature. This technique was used to investigate the onset temperatures of dehydration and degradation of the nicotine salt.
Table 4 details the temperature program for this study. The sample was heated from 30 to 950° C. under nitrogen (inert gas) or air.

The procedure of data set [2]:
The sample weight was monitored for 20 minutes at probable extrusion temperatures of 50, 55 and 60° C. This duration is longer than expected process time for small batches including hold time in hoppers.
The source holds these as a separate data set.

Molecules are shown by their SMILES. Like-named read-outs stand apart in the source and are kept apart here.

For `CN1CCCC1c1cccnc1.O.O.O=C(O)C(O)C(O)C(=O)O` (centres unmarked) [Nicotine bitartrate dihydrate], in data set [1] (Air purged sample), the “First Event Onset Temperature” value was 73.93 °C and the “Second Event Onset Temperature” value stood at 190.23 °C. Besides, in data set [1] (Nitrogen purged sample), the “First Event Onset Temperature” value was found to be 72.54 °C and the “Second Event Onset Temperature” value worked out at 190.78 °C. Also, in data set [1] (scan 30 to 950 °C), the “first TGA event inflection” value was 82 °C; the “first TGA event onset” value was found to be 73 °C; the “second TGA event inflection” value was 203 °C; the “weight loss, first TGA event” value is listed as “about 4%”. Also, in data set [2] (20 minute hold at 50 °C), the “weight loss after isothermal hold” value is reported as 0.497%. Moreover, the “weight loss after isothermal hold” value in data set [2] (20 minute hold at 55 °C) is reported as 0.678%. In addition, the “weight loss after isothermal hold” value in data set [2] (20 minute hold at 60 °C) worked out at 1.147%.
